The values that follow come from article PMC8691714 (Cancer Research Communications, 2021).

On the set-up of data set [1]: method as in earlier work. To be noted: PBPK model parameter, ref [17, 18] and Drugbank, cited from earlier work.
Details of data set [2]: method as in earlier work. To be noted: PBPK model parameter, ref [17, 18] and Drugbank, cited from earlier work. This is another data set of the same source.
Another data set relates to TMD8 cells. The data set is described as follows: MTT viability assay, TMD8 cells, 72 hours. Format: cell-based, human. Here is the method: Cell viability was assessed after 72 hours of incubation.
On the technique in general: Tetrazolium assays rely on reduction of a dye to a coloured formazan, in cell work by metabolically active cells.

On the set-up of data set [3]: method as in earlier work. To be noted: PBPK model parameter, ref [17, 18] and Drugbank, cited from earlier work. This is another data set of the same source.
For a further data set, the system named is BTK. Nature of the data set: Immunoblotting of BTK signaling in primary CLL cells. In kind it is cell-based, human. To be noted: ibrutinib 1 μmol/L with cobicistat 1, 10 μmol/L. Here is the method: Blood was drawn from patients with newly diagnosed, untreated CLL after receipt of written informed consent under a protocol approved by the Institutional Review Board of The Ohio State University (Columbus, OH) in accordance with the Declaration of Helsinki. B cells were isolated from whole blood using Rosette-Sep B (StemCell Technologies). Primary CLL cells were cultured in RPMI1640 medium supplemented with 10% FBS, 100 U/mL penicillin, 100 μg/mL streptomycin, and 2 mmol/L […]. […] After 1 hour, the cells were pelleted and resuspended in fresh media. For experiments with extended drug exposure, DMSO and cobicistat were added again after washout.
After 15 minutes of stimulation, cell lysates were collected and analyzed by SDS-PAGE. Protein was transferred to nitrocellulose and blots were probed with primary antibodies and horseradish peroxidase (HRP)-conjugated secondary antibodies. Blots were imaged using WesternBright chemiluminescent substrate (Advansta) on an X-ray film. Phosphorylated proteins were analyzed first, then antibodies were removed using Western Blot Stripping Buffer (Thermo Fisher Scientific) before analyzing total protein. Membranes were stripped after imaging total proteins before analyzing loading control. […] Loading controls were assessed for each membrane and are presented with corresponding proteins analyzed on the same membrane.
Background: A western blot detects proteins with antibodies after separation by electrophoresis.

In general, pKa refers to the negative logarithm of the acid dissociation constant. Broadly, the Vss is the apparent volume that relates the amount in the body to the concentration in plasma or blood.

As to `CC(C)c1nc(CN(C)C(=O)N[C@@H](CCN2CCOCC2)C(=O)N[C@H](CC[C@H](Cc2ccccc2)NC(=O)OCc2cncs2)Cc2ccccc2)cs1` [Cobicistat], the pKa in data set [1] (acid dissociation constant) is listed as 6.69. Further, in data set [1] (octanol/water partition coefficient), the “Log Po:w” value is given as 4.36. In addition, the Ka entry in data set [2] is recorded as “Ka (1/h)= 0.29”. In addition, the Clpo result in data set [2] (oral clearance) is on record as “Clpo (L/h) : 14”. In addition, the Vss in data set [2] (steady-state volume of distribution) is recorded as 0.46 L/kg. In addition, the “influence on the antileukemic activity of ibrutinib” value in the data set with TMD8 cells (cobicistat 0.1, 1 or 10 μmol/L) is “neither ketoconazole nor cobicistat negatively influenced”. Also, the B/P ratio in data set [3] (blood to plasma ratio) is on record as 0.55. Moreover, the “fu, plasma” value in data set [3] (unbound drug in the plasma) is given as 0.020. Moreover, in the data set with BTK, the “impact on ibrutinib's ability to suppress BTK signaling” value is “did not impact”.

For the molecule `CC(=O)N1CCN(c2ccc(OCC3COC(Cn4ccnc4)(c4ccc(Cl)cc4Cl)O3)cc2)CC1` (stereo not shown) [Ketoconazole], in the data set with TMD8 cells (ketoconazole 0.1, 1 or 10 μmol/L), the “influence on the antileukemic activity of ibrutinib” value is recorded as “neither ketoconazole nor cobicistat negatively influenced”.
